From US20230123334A1, “AMINO LIPID COMPOUND, PREPARATION METHOD THEREFOR, AND APPLICATION THEREOF” (SHENZHEN SHENXIN BIOTECHNOLOGY CO., LTD., priority 2020, published 2023)

Assays:
HEK293 cells [1] = experiment: Preliminary screening as mRNA vectors, EGFP mRNA transfection of HEK293 cells; format: cell-based; conditions: HEK293 cells, 96-well plates, EGFP mRNA 50 ng per well; percentage of GFP fluorescent cells relative to total number of cells (Hoechst)
Summary of the method: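 HEK293 cells in DMEM plus 10% FBS transfected in 96-well format with 50 ng EGFP mRNA per well; Lipofectamine2000 served as positive control. Read-out is the percentage of GFP-fluorescent cells among total cells, counted by Hoechst nuclear stain.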

HEK293 cells [2] = experiment: Preliminary screening as DNA vectors, GFP transfection of HEK293 cells; format: cell-based; conditions: HEK293 cells; lipid/DOPE liposome with 75 ng plasmid DNA (psin-EGFP-IRES-Puro); number of cells expressing GFP divided by total number of nuclei (Hoechst)
Summary of the method: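 HEK293 cells in DMEM/10% FBS transfected with 75 ng EGFP plasmid per well complexed with amino lipid/DOPE liposomes in pH 5.6 sodium acetate. Hoechst nuclear stain added 20-24 h post-transfection, then cells cultured another 20-24 h. Confocal imaging gives GFP-positive cells as % of total nuclei.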

SMILES | Absolute mRNA transfection efficiency in HEK293 cells (HEK293 cells [1]) | Absolute DNA transfection efficiency in HEK293 cells (HEK293 cells [2])
CCCCCCCCCCCCCCCCCCSc1nc(NCCN2CCCC2)nc(SCCCCCCCCCCC)n1 [Compound S11S18D3] | 11.6% | 4.8%
CCCCCCCCCCCCCCCCCCSc1nc(NCCN2CCCCC2)nc(SCCCCCCCCCCC)n1 [Compound S11S18D4] | 1.4% | 3.3%
CCCCCCCCCCCCCCCCCCSc1nc(NCCN2CCN(C)CC2)nc(SCCCCCCCCCCC)n1 [Compound S11S18D5] | 3.8% | 1.7%
CCCCCCCCCCCCCCCCCCSc1nc(NCCCN(C)C)nc(SCCCCCCCCCCC)n1 [Compound S11S18D6] | 6.0% | 3.6%
CCCCCCCCCCCCCCCCCCSc1nc(NCCN(CC)CC)nc(SCCCCCCCCCCC)n1 [Compound S11S18D7] | 1.1% | 3.6%
CCCCCCCCCCCCCCCCCCSc1nc(NCCCN2CCOCC2)nc(SCCCCCCCCCCC)n1 [Compound S11S18D8] | 3.3% | 7.8%
CCCCCCCCCCCCCCCCCCSc1nc(NCCCN2CCN(C)CC2)nc(SCCCCCCCCCCC)n1 [Compound S11S18D9] | 0.3% | 0.9%
CCCCCCCCCCCCCCCCCCSc1nc(NCC2CCN(C)CC2)nc(SCCCCCCCCCCC)n1 [Compound S11S18D10] | 92.0% | 20.9%
CCCCCCCCCCCCSc1nc(NCCN(C)C)nc(SCCCCCCCCCCCC)n1 [Compound S12S12D1] | 0.6% | 0.5%
CCCCCCCCCCCCSc1nc(NCCN2CCOCC2)nc(SCCCCCCCCCCCC)n1 [Compound S12S12D2] | 0.0% | 0.1%
CCCCCCCCCCCCSc1nc(NCCN2CCCC2)nc(SCCCCCCCCCCCC)n1 [Compound S12S12D3] | 11.0% | 2.1%
CCCCCCCCCCCCSc1nc(NCCN2CCCCC2)nc(SCCCCCCCCCCCC)n1 [Compound S12S12D4] | 36.3% | 4.1%
CCCCCCCCCCCCSc1nc(NCCN2CCN(C)CC2)nc(SCCCCCCCCCCCC)n1 [Compound S12S12D5] | 3.1% | 0.4%
CCCCCCCCCCCCSc1nc(NCCCN(C)C)nc(SCCCCCCCCCCCC)n1 [Compound S12S12D6] | 2.6% | 3.9%
CCCCCCCCCCCCSc1nc(NCCN(CC)CC)nc(SCCCCCCCCCCCC)n1 [Compound S12S12D7] | 1.3% | 3.3%
CCCCCCCCCCCCSc1nc(NCCCN2CCOCC2)nc(SCCCCCCCCCCCC)n1 [Compound S12S12D8] | 3.8% | 3.4%
CCCCCCCCCCCCSc1nc(NCCCN2CCN(C)CC2)nc(SCCCCCCCCCCCC)n1 [Compound S12S12D9] | 1.3% | 1.9%
CCCCCCCCCCCCSc1nc(NCC2CCN(C)CC2)nc(SCCCCCCCCCCCC)n1 [Compound S12S12D10] | 12.8% | 2.7%

SMILES | Absolute mRNA transfection efficiency in HEK293 cells (HEK293 cells [1]) | Absolute DNA transfection efficiency in HEK293 cells (HEK293 cells [2])
CCCCCCCCCCCCCCSc1nc(NCCN(C)C)nc(SCCCCCCCCCCCC)n1 [Compound S12S14D1] | 0.0% | 0.6%
CCCCCCCCCCCCCCSc1nc(NCCN2CCOCC2)nc(SCCCCCCCCCCCC)n1 [Compound S12S14D2] | 0.2% | 0.1%
CCCCCCCCCCCCCCSc1nc(NCCN2CCCC2)nc(SCCCCCCCCCCCC)n1 [Compound S12S14D3] | 6.3% | 6.5%
CCCCCCCCCCCCCCSc1nc(NCCN2CCCCC2)nc(SCCCCCCCCCCCC)n1 [Compound S12S14D4] | 14.0% | 6.7%
CCCCCCCCCCCCCCSc1nc(NCCN2CCN(C)CC2)nc(SCCCCCCCCCCCC)n1 [Compound S12S14D5] | 3.6% | 0.2%
CCCCCCCCCCCCCCSc1nc(NCCCN(C)C)nc(SCCCCCCCCCCCC)n1 [Compound S12S14D6] | 4.6% | 4.0%
CCCCCCCCCCCCCCSc1nc(NCCN(CC)CC)nc(SCCCCCCCCCCCC)n1 [Compound S12S14D7] | 0.9% | 3.3%
CCCCCCCCCCCCCCSc1nc(NCCCN2CCOCC2)nc(SCCCCCCCCCCCC)n1 [Compound S12S14D8] | 1.3% | 3.7%
CCCCCCCCCCCCCCSc1nc(NCCCN2CCN(C)CC2)nc(SCCCCCCCCCCCC)n1 [Compound S12S14D9] | 2.5% | 0.8%
CCCCCCCCCCCCCCSc1nc(NCC2CCN(C)CC2)nc(SCCCCCCCCCCCC)n1 [Compound S12S14D10] | 30.4% | 6.5%
CCCCCCCCCCCCCCCSc1nc(NCCN(C)C)nc(SCCCCCCCCCCCC)n1 [Compound S12S15D1] | 4.1% | 0.8%
CCCCCCCCCCCCCCCSc1nc(NCCN2CCOCC2)nc(SCCCCCCCCCCCC)n1 [Compound S12S15D2] | 0.0% | 0.5%
CCCCCCCCCCCCCCCSc1nc(NCCN2CCCC2)nc(SCCCCCCCCCCCC)n1 [Compound S12S15D3] | 9.7% | 2.9%
CCCCCCCCCCCCCCCSc1nc(NCCN2CCCCC2)nc(SCCCCCCCCCCCC)n1 [Compound S12S15D4] | 3.3% | 3.8%
CCCCCCCCCCCCCCCSc1nc(NCCN2CCN(C)CC2)nc(SCCCCCCCCCCCC)n1 [Compound S12S15D5] | 1.4% | 0.1%
CCCCCCCCCCCCCCCSc1nc(NCCCN(C)C)nc(SCCCCCCCCCCCC)n1 [Compound S12S15D6] | 0.0% | 4.4%
CCCCCCCCCCCCCCCSc1nc(NCCN(CC)CC)nc(SCCCCCCCCCCCC)n1 [Compound S12S15D7] | 0.0% | 1.4%
CCCCCCCCCCCCCCCSc1nc(NCCCN2CCOCC2)nc(SCCCCCCCCCCCC)n1 [Compound S12S15D8] | 3.2% | 3.1%
